One may read the melting point as the temperature, or range, at which the solid turns liquid.

This is an account of results in a melting point compilation (Tetko et al.; mined from patent text by program, amines drawn as free bases though some values may be those of a salt).

Compound `O=C1C(c2ccccc2)SCN1CCCCBr` (stereo not given) returned a melting point of 48 to 50 °C. As for `COc1cc(OC)c2c(=O)nc(-c3cc(C)c(O)c(C)c3)n(C)c2c1`, the figure is 188 to 189 °C; as for `CCOC(=O)C(CC1C(O)C2CCN1CC2)c1ccccc1` (stereo not given), 148 °C; as for `CCCc1nc2c(N)nc3ccccc3c2n1CCOCCCCl`, 131 to 132 °C.

For the compound `O=C(N(CCN(C(=O)C(F)(F)F)c1cccc2[nH]cc(Cl)c12)Cc1ccccc1)C(F)(F)F`, the melting point was in the range of 139 to 142 °C.

`Nc1ccc(C(=O)N2CC3CC(CN(Cc4ccc(Cl)cc4)C3)C2)cc1` registered a melting point of 213 °C. As for `N#CCc1cccc2c(-c3ccc(F)cc3)onc12`, the melting point lay in the range of 158 to 160 °C. In the case of `CCC(C(=O)OCC[Si](C)(C)C)c1ccccc1CCC(=O)c1cccc(C=Cc2ccc3ccc(Cl)cc3n2)c1` (stereo not given) it was 109 to 111 °C; in that of `CCc1ccc(-c2oc3cccc4c3c2C=CC4=O)cc1`, 186 °C; in that of `CN(C)C1CCC(Nc2ncnc3sc4c(c23)CCC4)CC1` (stereo not given), 97 to 98 °C. `COc1ccc(-c2c(Cl)c(Cn3cncn3)nc3sc4c(c23)CCSC4)cc1` displayed a melting point of 198 to 200 °C. Turning to `O=C(NCCO)c1cncc(-c2cccc3nn(Cc4cccc(C(F)(F)F)c4)cc23)c1`, the melting point lay within 185 to 186 °C. As for `CCS(=O)c1cc2c(cc1OC)CCn1c-2cc2c1C(=O)N(C(C)(C)C)CCCC2` (stereo not given), the figure is 185 to 187 °C; as for `CC(=O)Nc1cccc(Nc2ncnc3[nH]cc(C(=O)c4cccc(F)c4)c23)c1`, greater than 300 °C; as for `Clc1ccc(N2CCN(Cc3n[nH]c4ccccc34)CC2)cc1`, 223 to 224 °C. As for `CCc1nnc(-c2ccc(OC)c(OC)c2)n1-c1ccc(OC)cc1`, the figure is 148 °C; as for `CC(=O)N1CCC(Oc2ccc(C(F)(F)F)cc2)(c2ccccc2)CC1`, 96 to 100 °C; as for `O=C(O)C(=O)c1cccc(OCc2ccccc2Cl)c1OCc1ccccc1Cl`, 116 to 118 °C.

As for `CCOC(=O)C(C)(C)Sc1ccc(OCCn2c(C)nc3ccccc3c2=O)cc1`, the melting point fell in the range of 188 to 190 °C. As for `CC1(C)C(C=CC(=O)O)C1C(=O)OC(C#N)c1ccc(F)c(Oc2ccccc2)c1` (stereo not given), the melting point was found to be 99 °C. In the case of `COc1ccc(S(=O)(=O)c2ccccc2)cc1S(=O)(=O)NCCc1cccnc1` it was 181 to 183 °C; in that of `Clc1ccc2c(c1)C(n1ccnc1)c1ccccc1CS2` (stereo not given), 175 to 176 °C.

The compound `COc1cccc(C(O)C(C)(C)NC(=O)Cc2ccc(OC)c(OC)c2)c1` (stereo not given) displayed a melting point of 137 to 138 °C. As for `COc1ccc(Oc2ccc3ccccc3n2)cc1`, the figure is 96.5 to 98 °C; as for `NCCc1cccc(N2C(=O)N(c3ccc(Cl)cc3Cl)Cc3cnc(Nc4ccccc4)nc32)c1`, 131 to 135 °C; as for `COc1cc2c(cc1OC)CC(Nc1ccc(O)cc1)CC2` (stereo not given), 150 to 152 °C. As for `COc1ccc(CCN2CCCC(CO)C2)cc1OC` (stereo not given), the figure is 87.5 to 89 °C. In the case of `CCCn1nc(-c2ccc(OC)cc2)c2cccc(-c3ccccc3)c21` it was 58 to 59 °C. For `COc1ccc2sc3c(c2c1)OC(C)CNC3=O` (stereo not given), the melting point fell in the range of 185 to 186 °C.

Take `CC(C)c1ccc(S(=O)(=O)n2c(Cc3ccc(C(=O)O)cc3)cc3cc(C(F)(F)F)ccc32)cc1`: the melting point worked out at 227 °C.

In turn, `Cc1onc2c1NC(=O)COC2(C)c1ccccc1` (stereo not given) returned a melting point of 177 to 178 °C.

Compound `COCCCNS(=O)(=O)NC(=O)/C(C)=C/c1ccc(OCCOC)cc1Oc1ncc(C(F)(F)F)cc1Cl` returned a melting point of 121 to 122 °C. Take `O=C1Nc2ccc(F)cc2C(C#Cc2ccccn2)(C(F)(F)F)N1` (racemic): the melting point turned out to be 155 °C. As for `O=C(O)CON=c1c2nccc3cccc(c32)n2cccc12`, the figure is 212 °C; as for `O=C1C=CC2=C3OC=CC=C3C=CC2O1` (stereo not given), 96 to 98 °C. In the case of `CCOC(=O)c1c(C)nc2c(c1NCCCN1CCOCC1)NC(=O)CN2` it was 168 to 170 °C. In the case of `CCCc1c(OCc2ccc(C=CC(=O)O)cc2OC)ccc(C(C)=O)c1O` it was 144 to 146 °C; in that of `COC(=O)c1cc(O)ccc1OC`, 110 to 112 °C. `O=C(O)c1ccc(-c2ccc(OCCCCO)c(-c3ccc(N4CCCC4)c(C(F)(F)F)c3)c2)cc1` displayed a melting point of 237 °C.

Consider `CC(c1ccccc1)N(C=O)CC#N` (single isomer, unassigned; (+)), for which the melting point worked out at 78.9 °C. As for `CC(=C1SC(=O)NC1=O)c1ccc(NCCOc2c(-c3ccc(F)cc3)n(C)c3ccccc3c2=O)cc1`, the figure is 130 to 132 °C; as for `COC(=O)c1ccc(Cl)cc1NC(=O)Cc1cccnc1`, 85 to 87 °C; as for `COc1ccc2cc([C@H](C)C(=O)OCC(=O)N(C)CCO[N+](=O)[O-])ccc2c1`, 80 to 81 °C. Take `CN(C)CCCn1nc2c(c1-c1ccccc1)CCc1ccccc1-2`: the melting point was in the range of 60 to 62 °C. The compound `COc1ccc(CC2c3cc(O)c(OC)cc3CCN2CC2CC2)cc1O` (single isomer, unassigned; (+)) returned a melting point of 70 to 81 °C.

As for `COC(=O)c1ccccc1CSc1c(O)cc(-c2ccccc2)oc1=O`, the melting point is 122 to 123 °C. `CC(C)c1[nH]n(-c2c(Cl)cc(Cl)cc2Cl)c2nc(Cc3ccc(C(=O)O)cc3)nc(=O)c1-2` had a melting point of 294 to 295 °C. Consider `CC(=O)N1CCC(N2C(=O)CN=C(c3ccccc3)c3ccccc32)CC1`, for which the melting point fell in the range of 208 to 209 °C. In the case of `C=CC(c1ccc(C(C)C)cc1)c1c(C)c(NC=O)c(C)c(C)c1O` (stereo not given) it was 170 to 171 °C; in that of `O=c1[nH]c2ccccc2c(=O)n1S(=O)(=O)c1ccccc1`, 211 to 213 °C; in that of `N#Cc1ccc2nc(C(=O)NCc3ccnc(OCC4CCOC4)c3)[nH]c(=O)c2c1` (stereo not given), 230 to 233 °C. `COc1ccc(C(=O)Cc2cccc(C(F)(F)F)c2)cc1` showed a melting point of 94 to 95 °C. As for `CS(=O)(=O)OCCCc1ccc(OCc2coc(/C=C/c3ccccc3)n2)cc1`, the figure is 111 to 112 °C; as for `CCOc1nn(-c2ccc(C(F)(F)F)cn2)cc1CCCOc1cccc(CC(=O)O)c1`, 134 to 135 °C. As for `COc1ccc2c(c1)c(=O)oc1c(C(C)=O)c(O)ccc12`, the figure is 197 to 199 °C.

In turn, `CSc1[nH]cc(CCc2ccccc2)c1[N+](=O)[O-]` returned a melting point of 198 to 200 °C. The compound `O=C(OCCN1CCOC1=O)c1ccccc1Nc1ccnc2c(C(F)(F)F)cccc12` returned a melting point of 158 to 160 °C. `CCC(C)(C)N1CCN(C(=O)Nc2ccc3[nH]c(C(=O)N4CCN(c5ncccc5NC(C)C)CC4)cc3c2)CC1` returned a melting point of 240 to 242 °C. Consider `CN(CCc1ccc(NS(C)(=O)=O)cc1)Cc1ccc2cc(NS(C)(=O)=O)ccc2n1`, for which the melting point lay in the range of 165 to 166 °C.

As for `CNC(=O)c1cc2[nH]c(C)nc2c2c1CCC1(Cc3ccccc3C1)N2`, the melting point lay in the range of 240 to 241 °C. Take `Cc1sc(C(=O)OCc2ccccc2)cc1NC(=O)Cc1ccccc1`: the melting point lay in the range of 173 to 174 °C. The compound `O=C(Nc1c[nH]nc1C(=O)NCc1ccccc1)c1ccccn1` returned a melting point of 204 to 205 °C. As for `CCC(Br)C(=O)NOCc1ccccc1` (stereo not given), the melting point fell in the range of 99.3 to 102 °C. As for `C[C@@H](Cn1ncc2ccc3oc(C(N)=O)nc3c21)N=[N+]=[N-]`, the figure is 162 to 164 °C; as for `O=c1ccc(-c2ccc(OC3CCN(C4CCCC4)CC3)cc2)n[nH]1`, 211 to 213 °C; as for `COc1ccc(-c2cc(C(N)=O)c(=O)n(CC=Cc3ccc(Cl)cc3)n2)cc1`, 195 to 196 °C.

As to `O=C(c1ccc(C2CCCCC2)cc1)[C@H]1C[C@H]1C(=O)O` (relative stereo), the melting point is 162 to 163 °C. `CCOC(=O)C1=C(COCc2nnnn2CCNc2nc(N)n[nH]2)NC(C)=C(C(=O)OC)C1c1cccc(Cl)c1Cl` (stereo not given) had a melting point of 70 °C. As for `CN(SC(Cl)(Cl)Cl)C(=O)OC(C(Oc1ccc(Cl)cc1)n1cncn1)C(C)(C)C` (stereo not given), the figure is 110 to 112 °C; as for `CS(=O)(=O)c1ccc(Cc2ccc3ccccc3c2O)cc1`, 144 to 145 °C; as for `COC(F)(F)C(F)(F)C1(C(F)(F)C(F)(F)OC)OCCO1`, 30 to 40 °C. The compound `OC(CN1CCNCC1)Cn1c2ccccc2c2cc(-c3ccccc3)ccc21` (stereo not given) gave a melting point of 120 °C.

Take `CN1C(=O)N(C[C@H](CO)[C@@H](CC2CCCC2)C(=O)N2CCCCC2)C(=O)C1(C)C`: the melting point lay in the range of 92 to 95 °C. Compound `CCOC(=O)c1c(C(F)(F)F)nc(C(F)(F)Cl)c(C(=O)OC)c1OCC` came in with a melting point of 37.5 to 39.5 °C. In the case of `CCn1c(CNc2ccncc2)nc2c(C#N)nc(-c3cccc(C(F)(F)F)c3)cc21` it was 340 °C; in that of `COc1cc2c(cc1OC)OCCC(C(=O)N1CCN(C(=O)c3cc(OC)c(OC)c(OC)c3)CC1)=C2`, 132 to 134 °C; in that of `CC(=O)c1ccc(OCCCCl)c(C)c1`, 41.5 to 42.5 °C. On to `CCOC(=O)c1cccc(NC(=O)N[C@@H]2N=C(c3ccccc3)c3ccccc3N(C)C2=O)c1`, for which the melting point fell in the range of 140 to 142 °C. In the case of `CN(C)CCN(C)C(=O)Cc1ccc(NC(=O)c2ccc(-c3ccccc3)cc2)cc1` it was 135 to 136 °C; in that of `Cc1ccc(-c2cnc(N)c(C(=O)Nc3cccnc3)n2)cc1C`, 178 to 182 °C; in that of `CS(=O)(=O)Nc1nc(-c2ccc(NS(C)(=O)=O)c(Sc3ccc(F)cc3F)c2)cs1`, 159 to 161 °C.

Consider `CCCCCCCCCCCCc1ccccc1C(CC(=O)O)SCCC(=O)O` (stereo not given), for which the melting point was in the range of 55 to 56 °C.

In turn, `COC(=O)c1cc2cc(OC)c(OC)cc2c(-c2ccnc(-n3c(=O)cc(OCC(=O)OCc4ccccc4)c4ccccc43)c2)c1C(=O)OC` returned a melting point of 186 to 189 °C. With `CCn1c(=O)n(C2CCN(CCCCN3C(=O)c4ccccc4S3(=O)=O)CC2)c2ccccc21`, the melting point fell in the range of 124 to 125 °C.

For `COC(=O)[C@H](COCc1ccccc1)NC(=O)Nc1n[nH]c(=S)s1`, the melting point fell in the range of 84 to 86 °C.
